Measured values reported in PubChem BioAssay AID1224901.
pEC50: −log10 of the molar value.

Test system: MCF7 viability, PrestoBlue fluorescence
Test: growth inhibition of MCF7 cells, dose response, mTOR inhibitor project (AID 1224901)

pEC50: 8.10
Structure (SMILES): CCOC(Cn1nc(-c2ccc3oc(N)nc3c2)c2c(N)ncnc21)OCC
